The values that follow are results of earlier work, collected in patent US6113907A, “Pharmaceutical grade St. John's Wort” (priority 1997, dated 2000).

Counter-ions that a name gives are not always drawn.

For data set [1] the following is noted: depressed outpatients; cited from earlier work.
For another data set, the target named is monoamine oxidase B. As to conditions: reference compounds; read-out: inhibition of monoamine oxidase B IC50; cited from earlier work.
In a further data set the test system is bacteria, fungi. The note with it: hyperforin, adhyperforin: dilutions of 1:400 or 1:200; cited from earlier work.
For data set [2] the following is noted: oil preparations, exposed to light; cited from earlier work.

On to `CCCC/N=C(/c1cc(Cl)ccc1O)c1ccccc1Cl` [fengabine], for which, in data set [1], the antidepressant effects result was “antidepressant effects”.

`NCCNC(=O)c1cccc(I)c1` [N-(2-aminoethyl)-3-iodobenzamide hydrochloride]: the IC50 on monoamine oxidase B is 1.7 µM. Take `CC(C)=CCCC1(C)C(CC=C(C)C)CC2(CC=C(C)C)C(=O)C(CC=C(C)C)=C(O)C1(C(=O)C(C)C)C2=O` (stereo not shown) [Hyperforin, hyperforin]: in the data set on bacteria, fungi, the “antibacterial / antifungal / antibiotic effect” value is given as “antibiotic effect greater than that of sulfonilamide”. Further, the degradation time in data set [2] is reported as 14 days.

By IC50 is commonly meant the concentration that inhibits the measured activity by half.
